Read-outs that look alike come from different tables or passages of the source.
What was measured:
[1] = stored at 4° C.
Excerpt: For the determination of the purity and of the ratio of the diastereoisomers a sample of the compound of formula IV was washed with 94% (v/v) aqueous ethanol and was then dried under reduced pressure.

[2] = stored at 25° C. under vacuum [2 mbar]

| HPLC purity (%) ([1]; time 0 months) | HPLC purity (%) ([1]; time 6 months) | HPLC assay (%) ([2]; time 0 months) | HPLC purity (%) ([2]; time 0 months) | HPLC assay (%) ([2]; time 1 month) | HPLC purity (%) ([2]; time 1 month) | HPLC assay (%) ([2]; time 2 months) | HPLC purity (%) ([2]; time 2 months) | HPLC assay (%) ([2]; time 3 months) | HPLC purity (%) ([2]; time 3 months) | HPLC assay (%) ([2]; time 6 months) | HPLC purity (%) ([2]; time 6 months) | HPLC assay (%) ([2]; time 9 months) | HPLC purity (%) ([2]; time 9 months) | Structure (SMILES) |
| --- | --- | --- | --- | --- | --- | --- | --- | --- | --- | --- | --- | --- | --- | --- |
| 96.45 | 96.66 | – | – | – | – | – | – | – | – | – | – | – | – | CN1c2c(nc(N)[nH]c2=O)NC[C@@H]1CNc1ccc(C(=O)N[C@@H](CCC(=O)O)C(=O)O)cc1 [formula IV, (6S)—N(5)-methyl-5,6,7,8-tetrahydrofolic acid] |
| – | – | 99.0 | 98.7 | 98.8 | 98.7 | 99.8 | 98.9 | 100.2 | 98.8 | 99.9 | 98.5 | 100.7 | 98.9 | CN1c2c(nc(N)[nH]c2=O)NC[C@@H]1CNc1ccc(C(=O)NC(CCC(=O)[O-])C(=O)[O-])cc1.[Ca+2] (stereo partly drawn) [formula V, calcium salt of (6S)—N(5)-methyl-5,6,7,8-tetrahydrofolic acid] |

From US8754212B2, “Process for the preparation of stable, amorphous calcium salt of (6S)-N(5)-methyl-5,6,7,8-tetrahydrofolic acid” (Cerbios-Pharma S.A., priority 2007, dated 2014)
